Experimental data reported in US10696651B2, “Heterocyclic compound” (Takeda Pharmaceutical Company Limited, priority 2016, dated 2020).

Key:
[1] = system: human acute lymphoblastic leukemia cells CCRF-CEM; assay: In vivo tumor proliferation inhibitory assay with combined use of asparaginase (CCRF-CEM xenograft); conditions: CCRF-CEM xenograft in SCID mouse; for in vivo tumor proliferation inhibitory rate (%), GCN2 inhibitor: GCN2 inhibitor alone
Text: One million human acute lymphoblastic leukemia cells CCRF-CEM obtained from ATCC (American Type Culture Collection) were suspended in Matrigel solution (Corning) and implanted subcutaneously into 6-week-old female SCID mouse (CLEA Japan, Inc.) by injection. The mice in which the tumor engrafted to a size of about 200 mm^3 tumor volume after transplantation were selected and 5 mice per group were used for the experiment. A 0.5% methylcellulose suspension of the compound was orally administered twice per day for 9 days. Each compound was administered twice per day and the dose was 10 mg/kg for Example 14 and Example 7, and 6 mg/kg for Example 4. L-asparaginase (Kyowa Hakko Kogyo Co., Ltd.) was subcutaneously administered once per day at a dose of 1000 U/kg. Tumor diameter was measured one day before start of the administration and day 9 of the administration, and the tumor volume was calculated by the formula 1. tumor volume=major axis×minor axis×minor axis×(½) Formula 1
Tumor proliferation inhibitory rate (%) was calculated by the formula 2. tumor proliferation inhibitory rate (%)=(1−(T9−T0)/(C9−C0))×100 Formula 2 T9: average tumor volume of test drug administration group on day 9 of administration, T0: average tumor volume of test drug administration group one day before start of administration, C9: average tumor volume of control group on day 9 of administration, C0: average tumor volume of control group one day before start of administration

[2] = system: human acute lymphoblastic leukemia cell line CCRF-CEM; assay: In vitro tumor proliferation inhibitory assay with combined use of asparaginase; format: cell-based; conditions: compound concentration 100 nM, L-asparaginase 0.1 U/mL, 72 hr, read-out: in vitro cell proliferation inhibitory rate (%)
Description: A cell suspension (40 μL) (5000 cells/well) of human acute lymphoblastic leukemia cell line CCRF-CEM obtained from ATCC (American Type Culture Collection) was seeded on a 384 well plate using RPMI1640 medium. The seeded cells were incubated (37° C., 5% CO2) overnight to 24 hr at the longest. L-asparaginase (Sigma-Aldrich Co. LLC.) was dissolved in PBS and treated in each well to a final concentration of 0.1 U/mL. Furthermore, each test compound was dissolved (10 mM) in DMSO, delivered to wells by using TECAN HP D300 (TECAN), and the plate was incubated for 72 hr (37° C., 5% CO2). A well without addition of compound was treated similarly as a control group. […] After incubation for 10 min, cell proliferation inhibitory rate was measured by the amount of ATP which is a cell viability marker.
Luminescence of cells showing ATP amount was measured using ARVO MX (PerkinElmer). Based on the luminescence value of the control group without addition of test compound solution and the treatment group with addition of test compound, the cell proliferation inhibitory rate (%) of the test compound at a compound concentration of 100 nM was calculated by the following formula and the results thereof are shown in Table 7. Inhibitory rate (%)=(1−(luminescence value of treatment group)÷(luminescence value of control group))×100

Row | Structure (SMILES) | in vivo tumor proliferation inhibitory rate (%), GCN2 inhibitor ([1]; 6 mg/kg oral twice per day for 9 days) | in vivo tumor proliferation inhibitory rate (%), combined use ([1]; compound 6 mg/kg oral twice per day for 9 days combined with L-asparaginase 1000 U/kg s.c. once per day) | inhibition at 0.1 µM [2] | in vivo tumor proliferation inhibitory rate (%), GCN2 inhibitor ([1]; 10 mg/kg oral twice per day for 9 days) | in vivo tumor proliferation inhibitory rate (%), combined use ([1]; compound 10 mg/kg oral twice per day for 9 days combined with L-asparaginase 1000 U/kg s.c. once per day)
1 | Nc1ncc(C#Cc2c(F)ccc(NS(=O)(=O)c3cc(Cl)cc(CO)c3Cl)c2F)cn1 [Example 4, N-(3-((2-aminopyrimidin-5-yl)ethynyl)-2,4-difluorophenyl)-2,5-dichloro-3-(hydroxymethyl)benzenesulfonamide] | 2% | 60% | 89% | – | –
2 | COc1ncc(Cl)cc1S(=O)(=O)Nc1ccc(F)c(C#Cc2cnc(N)nc2)c1F [Example 7, N-(3-((2-aminopyrimidin-5-yl)ethynyl)-2,4-difluorophenyl)-5-chloro-2-methoxypyridine-3-sulfonamide] | – | – | 90% | 7% | 65%
